Reference: article PMC6934184, “Selective DNA-PKcs inhibition extends the therapeutic index of localized radiotherapy and chemotherapy” (The Journal of Clinical Investigation, 2019)

Target: T1, TLK1 (Homo sapiens, UniProt Q9UKI8)
T1 construct: purchased Thermo Fisher Scientific (Life Technologies) SelectScreen
Test: SelectScreen LanthaScreen
Format: binding
Conditions: read-out: % displacement
In short: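 SelectScreen broad panel; activity (Z'LYTE, Adapta) plus binding formats. ATP: Km app for CSF1R Z'LYTE; 10 for CAMK1 Adapta. Readout = % per kinase.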

T1 sequence (Q9UKI8 whole entry): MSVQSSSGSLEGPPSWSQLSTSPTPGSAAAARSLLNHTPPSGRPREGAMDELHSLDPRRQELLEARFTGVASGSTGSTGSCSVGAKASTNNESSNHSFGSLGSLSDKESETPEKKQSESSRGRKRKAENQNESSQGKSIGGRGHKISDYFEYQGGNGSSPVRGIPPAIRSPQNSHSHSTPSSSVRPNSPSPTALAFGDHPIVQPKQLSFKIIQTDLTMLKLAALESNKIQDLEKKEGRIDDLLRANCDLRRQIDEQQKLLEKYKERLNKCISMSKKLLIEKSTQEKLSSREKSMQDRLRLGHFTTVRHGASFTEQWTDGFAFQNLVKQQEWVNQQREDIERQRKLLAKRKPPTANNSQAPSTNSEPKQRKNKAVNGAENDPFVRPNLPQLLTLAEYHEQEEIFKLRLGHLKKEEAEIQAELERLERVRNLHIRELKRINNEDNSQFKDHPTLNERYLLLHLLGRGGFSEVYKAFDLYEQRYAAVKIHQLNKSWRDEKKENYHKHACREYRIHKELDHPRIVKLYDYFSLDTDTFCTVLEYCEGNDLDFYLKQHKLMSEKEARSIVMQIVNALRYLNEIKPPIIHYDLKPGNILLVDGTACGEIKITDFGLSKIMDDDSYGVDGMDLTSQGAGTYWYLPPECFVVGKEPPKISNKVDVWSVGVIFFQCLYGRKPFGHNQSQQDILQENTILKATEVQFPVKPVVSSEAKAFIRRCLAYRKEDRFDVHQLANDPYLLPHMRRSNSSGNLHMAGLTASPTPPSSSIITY

CN(C(=O)CN1CCOCC1)c1ccc2sc3c(-c4cccc5c(=O)cc(N6CC7CCC(C6)O7)oc45)cccc3c2c1 [NU5455]
inhibition at 1 µM: -0.8%
